How the values were obtained:
[1] = Pharmacokinetic study in mice (IV, PO); type: in vivo, mice (C57BL/6); conditions: Mouse Plasma; for AUC(0-t) / Cmax at 5 min / half-life / AUC(0-inf) / Cmax: female, C57BL/6; for AUC(0-inf): read-out: AUCINF—obs; for Cmax: read-out: Cmax (5 min)
Method: Pharmacokinetic analysis of compounds was conducted following bolus intravenous (IV) or bolus oral (PO) gavage in mice. Female mice (C57BL/6) in the 17-26 g range were weighed, and then administered an individually prescribed dose volume based on body weight of formulated compound via the intravenous (IV; tail vein) or oral gavage (PO) route (IV 5 mL/kg; PO 10 mL/kg). At selected timepoints post administration, blood was collected into vials with anticoagulant, processed for plasma by centrifugation, and then kept frozen ([…]) until analysis.
(§1) The in-vivo study plasma samples were analyzed using Ultra Performance Liquid Chromatography (UPLC) with tandem mass spectrometry (MS/MS) detection in multiple reaction monitoring (MRM) mode. A generic bioanalytical method involving plasma sample extraction and cleanup by protein precipitation with acetonitrile was used followed by UPLC-MS/MS analysis.
(§2) A brief example of a generic bioanalytical UPLC-MS/MS method used for analysis of compounds in the in-vivo study plasma samples is as follows. Plasma samples were spiked with internal standard prior to extraction and cleanup by protein precipitation with ice cold acetonitrile containing 0.1% (v/v) ammonium hydroxide at a ratio of 3:1 (solvent:plasma) and centrifuged at 18213 rcf for 15 minutes at 4° C. to pellet precipitates. Aliquots of supernatants were transferred to a 96-well plate and evaporated to dryness at 40° C. under a stream of nitrogen gas. Samples were reconstituted in 50:50 acetonitrile/10 mM ammonium acetate buffer pH 8, mixed thoroughly and analyzed using Ultra Performance Liquid Chromatography (UPLC) with tandem mass spectrometry (MS/MS) detection in multiple reaction monitoring (MRM) mode. Matrix-matched calibration standards and quality control (QC) samples were prepared in naïve C57Bl/6 mouse plasma. The UPLC column used was Waters Acquity UPLC BEH C18 1.7 um, 2.1 mm×50 mm (with guard column). The UPLC mobile phase consisted of: Mobile phase A: 10 mM ammonium acetate in Water pH 8, and Mobile phase B: Acetonitrile. Separation was accomplished with a linear gradient of 5% mobile phase B to 95% mobile phase B in 2 min, and a flow rate of 0.35 mL/min. The MS/MS data acquisition was accomplished using 3 MRM Transitions in ESI+ mode. Parent ion mass 508.37 m/z-to-Daughter ions (m/z) 117.05, 232.13 and 270.22. The quantitation of concentrations in test samples was achieved by matrix-matched calibration with normalization using an internal standard. Data acquisition and analysis were performed using Waters MassLynx software with TargetLynx application manager.
(§3) Estimation of PK parameters was performed using independent noncompartmental model method by PHOENIX WinNonlin software.

[2] = Pharmacokinetic study in dogs (IV, PO); type: in vivo, Beagle dogs; conditions: Table C, Dog Plasma; for AUC(0-t) / Cmax at 5 min / half-life / AUC(0-inf): male, Beagle; for AUC(0-inf): read-out: AUCINF—obs
Method: Pharmacokinetic studies were conducted to estimate plasma concentrations obtained after oral gavage (PO) and intravenous (IV) single administration of compounds administered to separate groups of male Beagle dogs. Three (3) dogs were administered a compound via the intravenous (IV) route at 3 mg/kg and 2.5 mL/kg, and plasma was collected at 12 timepoints over a 24-hour period. Following a 7 days washout period, the same dogs were administered the same compound via PO at 10 mg/kg and 5 mL/kg, and plasma was collected at 12 timepoints over a 48-hour period.
as §1, §2, §3

[3] = Pharmacokinetic study in rats (IV, PO); type: in vivo, Sprague-Dawley rats; conditions: Table B, Rat Plasma; for AUC(0-t) / half-life / AUC(0-inf) / Cmax: male, Sprague-Dawley; for AUC(0-inf): read-out: AUCINF—obs; for Cmax: read-out: Cmax (5 min)
Method: Pharmacokinetic studies were conducted to estimate plasma concentrations obtained after oral gavage (PO) and intravenous (IV) single administration of compounds administered to male Sprague-Dawley rats. Six (6) rats were administered for each compound, route and dose, and plasma was collected at 12 timepoints over a 24 hr period for IV, and 12 timepoints over a 48 hr period for PO. Note that plasma was collected from only 3 animals per timepoint (n=3 for timepoints up to 10 hours, and n=3 for timepoints from 16 h to end of study). Dosing volumes were 5 mL/kg for IV and 10 mL/kg for PO gavage. IV compounds for administration were in solutions, whereas PO compounds were in solution or suspension.
as §1, §2, §3

With `O=C(N[C@H]1CC[C@@H](Oc2nc(N3CCOCC3)cc3ncccc23)CC1)c1cc[nH]c1` [Compound 140, N-((1s,4s)-4-((7-morpholino-1,6-naphthyridin-5-yl)oxy)cyclohexyl)-1H-pyrrole-3-carboxamide] the “AUC—%Extrap—obs” value ([1]; Table D, IV, 3 mg/kg) was 0.91%, the Cl_obs ([1]; Table D, IV, 3 mg/kg) was 2.04552 L/h/kg and the Vz_obs ([1]; Table D, IV, 3 mg/kg) was 3.32052 L/kg. The “AUC—%Extrap—obs” value ([1]; Table D, PO, 10 mg/kg) was 0.39%, the Cl_obs ([1]; Table D, PO, 10 mg/kg) was 4.65196 L/h/kg and the F ([1]; Table D, PO, 10 mg/kg) was 44%. For the same compound, the Vz_obs ([1]; Table D, PO, 10 mg/kg) was 18.51427 L/kg, the AUC(0-t) ([1]; Table D, IV, 3 mg/kg) was 1.45 µg·h/mL and the Cmax at 5 min ([1]; Table D, IV, 3 mg/kg) was 2.02 µg/mL. For the same compound, the half-life ([1]; Table D, IV, 3 mg/kg) was 1.13 h, the AUC(0-inf) ([1]; Table D, IV, 3 mg/kg) was 1.47 µg·h/mL and the AUC(0-t) ([1]; Table D, PO, 10 mg/kg) was 2.14 µg·h/mL. It also gave a Cmax at 5 min ([1]; Table D, PO, 10 mg/kg) of 1.24 µg/mL, a half-life ([1]; Table D, PO, 10 mg/kg) of 2.76 h and an AUC(0-inf) ([1]; Table D, PO, 10 mg/kg) of 2.15 µg·h/mL.

For `O=C(N[C@H]1CC[C@@H](Oc2nc(N3CCOCC3)cc3ncccc23)CC1)c1ncccn1` [Compound 123, N-((1s,4s)-4-((7-Morpholino-1,6-naphthyridin-5-yl)oxy)cyclohexyl)pyrimidine-2-carboxamide], the “AUC—%Extrap—obs” value ([2]; IV, 3 mg/kg) was 2.17%, the Cl_obs ([2]; IV, 3 mg/kg) was 0.61423 L/h/kg and the Vz_obs ([2]; IV, 3 mg/kg) was 4.4105 L/kg. For the same compound, the “AUC—%Extrap—obs” value ([2]; PO, 10 mg/kg) was 0.29%, the Cl_obs ([2]; PO, 10 mg/kg) was 0.60885 L/h/kg and the F ([2]; PO, 10 mg/kg) was 108%. The Vz_obs ([2]; PO, 10 mg/kg) was 5.13768 L/kg, the AUC(0-t) ([2]; IV, 3 mg/kg) was 4.94 µg·h/mL and the Cmax at 5 min ([2]; IV, 3 mg/kg) was 2.47 µg/mL. It also gave a half-life ([2]; IV, 3 mg/kg) of 5.2 h, an AUC(0-inf) ([2]; IV, 3 mg/kg) of 5.07 µg·h/mL and an AUC(0-t) ([2]; PO, 10 mg/kg) of 17.8 µg·h/mL. For the same compound, the Cmax at 5 min ([2]; PO, 10 mg/kg) was 2.97 µg/mL, the half-life ([2]; PO, 10 mg/kg) was 6.03 h and the AUC(0-inf) ([2]; PO, 10 mg/kg) was 17.8 µg·h/mL. The “AUC—%Extrap—obs” value ([1]; Table A, IV, 3 mg/kg) was 0.73%, the Cl_obs ([1]; Table A, IV, 3 mg/kg) was 1.27579 L/h/kg and the Vz_obs ([1]; Table A, IV, 3 mg/kg) was 3.93714 L/kg. The “AUC—%Extrap—obs” value ([1]; Table A, PO, 10 mg/kg) was 6.92%, the Cl_obs ([1]; Table A, PO, 10 mg/kg) was 1.93416 L/h/kg and the F ([1]; Table A, PO, 10 mg/kg) was 62%. The Vz_obs ([1]; Table A, PO, 10 mg/kg) was 9.80258 L/kg, the AUC(0-t) ([1]; Table A, IV, 3 mg/kg) was 2.33 µg·h/mL and the half-life ([1]; Table A, IV, 3 mg/kg) was 2.14 h. It also gave an AUC(0-inf) ([1]; Table A, IV, 3 mg/kg) of 2.35 µg·h/mL, a Cmax ([1]; Table A, IV, 3 mg/kg) of 3.66 µg/mL and an AUC(0-t) ([1]; Table A, PO, 10 mg/kg) of 4.81 µg·h/mL. The half-life ([1]; Table A, PO, 10 mg/kg) was 3.51 h, the AUC(0-inf) ([1]; Table A, PO, 10 mg/kg) was 5.17 µg·h/mL and the Cmax ([1]; Table A, PO, 10 mg/kg) was 2.38 µg/mL. The “AUC—%Extrap—obs” value ([3]; IV, 3 mg/kg) was 0.48%, the Cl_obs ([3]; IV, 3 mg/kg) was 3.05005 L/h/kg and the Vz_obs ([3]; IV, 3 mg/kg) was 4.33451 L/kg. The “AUC—%Extrap—obs” value ([3]; PO, 3 mg/kg) was 16.96%, the Cl_obs ([3]; PO, 3 mg/kg) was 15.16124 L/h/kg and the F ([3]; PO, 3 mg/kg) was 17%. For the same compound, the Vz_obs ([3]; PO, 3 mg/kg) was 85.17336 L/kg, the “AUC—%Extrap—obs” value ([3]; PO, 10 mg/kg) was 19.45% and the Cl_obs ([3]; PO, 10 mg/kg) was 5.56503 L/h/kg. The F ([3]; PO, 10 mg/kg) was 44%, the Vz_obs ([3]; PO, 10 mg/kg) was 34.17323 L/kg and the “AUC—%Extrap—obs” value ([3]; PO, 30 mg/kg) was 28.47%. For the same compound, the Cl_obs ([3]; PO, 30 mg/kg) was 2.61638 L/h/kg, the F ([3]; PO, 30 mg/kg) was 84% and the Vz_obs ([3]; PO, 30 mg/kg) was 19.76577 L/kg. For the same compound, the AUC(0-t) ([3]; IV, 3 mg/kg) was 0.979 µg·h/mL, the half-life ([3]; IV, 3 mg/kg) was 0.99 h and the AUC(0-inf) ([3]; IV, 3 mg/kg) was 0.984 µg·h/mL. For the same compound, the Cmax ([3]; IV, 3 mg/kg) was 1.49 µg/mL, the AUC(0-t) ([3]; PO, 3 mg/kg) was 0.164 µg·h/mL and the half-life ([3]; PO, 3 mg/kg) was 3.89 h. For the same compound, the AUC(0-inf) ([3]; PO, 3 mg/kg) was 0.198 µg·h/mL, the Cmax ([3]; PO, 3 mg/kg) was 0.0322 µg/mL and the AUC(0-t) ([3]; PO, 10 mg/kg) was 1.45 µg·h/mL. For the same compound, the half-life ([3]; PO, 10 mg/kg) was 4.26 h, the AUC(0-inf) ([3]; PO, 10 mg/kg) was 1.8 µg·h/mL and the Cmax ([3]; PO, 10 mg/kg) was 0.396 µg/mL. For the same compound, the AUC(0-t) ([3]; PO, 30 mg/kg) was 8.2 µg·h/mL, the half-life ([3]; PO, 30 mg/kg) was 5.24 h and the AUC(0-inf) ([3]; PO, 30 mg/kg) was 11.5 µg·h/mL. For the same compound, the Cmax ([3]; PO, 30 mg/kg) was 1.57 µg/mL.

Source: patent publication US20240246960A1 (adMare Therapeutics Society, priority 2021, published 2024)
